Measurements taken from PMC3967745 (Journal of medicinal chemistry, 2012).

What was measured:
human CB2 receptor [1] = target: T1, human CB2 receptor (Homo sapiens, UniProt P34972); experiment: cell-based LANCE cAMP assay in CHO cells stably expressing CB2
[2] = tested on: normal human mononuclear cells (PBMC); experiment: cytotoxicity assay on human mononuclear cells; type: cell-based; conditions: 72 h, PBMC from healthy donors
human CB2 receptor [3] = target: T1, human CB2 receptor; experiment: [3H]CP-55,940 radioligand competition binding assay, CB2; conditions: calculated as Ki(CB1)/Ki(CB2) ratio

T1 sequence (P34972 whole entry): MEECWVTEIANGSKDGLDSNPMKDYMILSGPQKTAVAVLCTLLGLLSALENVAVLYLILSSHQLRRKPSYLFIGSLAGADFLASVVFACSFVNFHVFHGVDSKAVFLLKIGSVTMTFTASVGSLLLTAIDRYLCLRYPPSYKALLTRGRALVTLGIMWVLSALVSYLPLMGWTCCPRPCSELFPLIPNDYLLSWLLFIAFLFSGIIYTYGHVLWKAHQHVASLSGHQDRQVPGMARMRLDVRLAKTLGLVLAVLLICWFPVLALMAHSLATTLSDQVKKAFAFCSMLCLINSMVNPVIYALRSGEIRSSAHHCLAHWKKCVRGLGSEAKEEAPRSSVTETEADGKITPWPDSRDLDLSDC

Compound	functional activity at CB2 (human CB2 receptor [1])	other results
CN(C)c1ccc(C(NC(=O)Cc2ccccc2)NC(=O)Cc2ccccc2)cc1 [Compound 9, N,N′-((4-(Dimethylamino)phenyl)methylene)bis(2-phenylacetamide)]	inverse agonists	–
CC(C)c1ccc(C(NC(=O)Cc2ccccc2)NC(=O)Cc2ccccc2)cc1 [Compound 18, N,N′-((4-Isopropylphenyl)methylene)bis(2-phenylacetamide)]	CB2 inverse agonists	–
CCN(CC)c1ccc(C(NC(=O)Cc2ccccc2)NC(=O)Cc2ccccc2)cc1 [Compound 26, N,N′-((4-(Diethylamino)phenyl)methylene)bis(2-phenylaceta-mide)]	CB2 inverse agonists	cytotoxic effects ([2]; 1 µM): did not show any cytotoxic effects; effects on cell viability ([2]; 10 µM): only slight effects on cell viability
CCCN(CCC)c1ccc(C(NC(=O)Cc2ccccc2)NC(=O)Cc2ccccc2)cc1 [Compound 27, N,N′-((4-(Dipropylamino)phenyl)methylene)bis(2-phenylaceta-mide)]	CB2 inverse agonists	–
O=C(Cc1ccccc1)NC(NC(=O)Cc1ccccc1)c1ccc(N2CCCC2)cc1 [Compound 30, N,N′-((4-(Pyrrolidin-1-yl)phenyl)methylene)bis(2-phenylaceta-mide)]	CB2 inverse agonists	–
O=C(Cc1ccc(Cl)cc1)NC(NC(=O)Cc1ccc(Cl)cc1)c1ccc(C(F)(F)F)cc1 [Compound 39, N,N′-((4-(Trifluoromethyl)phenyl)methylene)bis(2-(4-chlorophenyl)acetamide)]	–	SI: selectivity index for CB2 (human CB2 receptor [3]): >198
CCCCCC(=O)NC(NC(=O)CCCCC)c1ccc(N(CC)CC)cc1 [Compound 59, N,N′-((4-(Diethylamino)phenyl)methylene)dihexanamide]	CB2 inverse agonists	–
